Measurements: patent publication US8883963B2 (Cadila Healthcare Limited, priority 2007, dated 2014)
Starred links: 1 amine or outer side, 2 acyl side, 3 side chain; linkers in the order of their positions; H or OH if unused. Non-standard residues stand in square brackets, D forms with d. Residues, ends and D or L forms follow the SMILES beside them. ξ: configuration not given here. Leu(5,5,5,5',5',5'-F6) = N[C@@H](CC(C(F)(F)F)C(F)(F)F)C(=O)O; ξBip(2'-Et-4'-OMe) = CCc1cc(OC)ccc1-c1ccc(CC(N)C(=O)O)cc1; X1 = O=C(C(CCCc1ccc(C(F)(F)F)cc1F)N[*:1])[*:2]; ξbishPhe(2-F) = NC(CCCc1ccccc1F)C(=O)O; ξαMePhe(2-F) = CC(N)(Cc1ccccc1F)C(=O)O; Aib = CC(C)(N)C(=O)O

How the values were obtained:
[1] = Stability in simulated gastric fluid; type: in vitro ADME; settings: 2 μM peptidomimetic, simulated gastric fluid pH 1.5, 37° C.; for half-life at 2 μM: read-out: half-life (t1/2) when incubated with simulated gastric fluid
Method: (§1) Reactions were terminated by the addition of TFA/H2O (15 mL, 10% (v/v)). […] The column was equilibrated with TFA/H20, at a flow rate of 1 mL/min.

[2] = Stability in simulated intestinal fluid; type: in vitro ADME; settings: 2 μM peptidomimetic, simulated intestinal fluid pH 7.5, 37° C.; for half-life at 2 μM: read-out: half-life (t1/2) when incubated with simulated intestinal fluid
Method: as §1

[3] = Stability in human plasma; type: in vitro ADME; settings: 2 μM peptidomimetic, pooled human plasma, 37° C.; for half-life at 2 μM: pH 7.8, read-out: half-life (t1/2) when incubated with human plasma
Method: as §1

[4] = Stability in liver microsomes; type: in vitro ADME; settings: 2 μM peptidomimetic, human liver microsomes, 37° C.; for half-life at 2 μM: pH 7.8, read-out: half-life (t1/2) when incubated with liver microsomes
Method: as §1

Human GLP-1 receptor = target: T1, Human GLP-1 receptor (Homo sapiens, UniProt P43220); assay: In vitro Human GLP-1 R agonist activity (cyclic AMP determination) in CHO/human GLP1R cells; type: cell-based
T1 construct: The full-length cDNA was cloned in pcDNA3.1(+); expressed in transfected cells
Method: The novel peptidomimetics were screened for Human GLP-1 receptor (HGLP-1 R) agonist activity (in vitro), using the cAMP cell-based assay, in stably transfected CHO/human GLP1R cells. […] CHO cells were grown in Ham's F12 medium containing L-Glutamine (2 mM), HEPES (25 mM), NaHCO3 (1.1 g/L) and supplemented with NewBorn Calf Serum (NBCS; 10%), Penicillin (50 U/ml (v/v)) and Streptomycin (50 ug/ml (v/v)). Cells were split every 3 days 1:8.
The cDNA encoding the human GLP-1 receptor was isolated by RT-PCR according to standard protocol. The full-length cDNA was cloned in pcDNA3.1(+). […] Clones expressing the receptor were generated by G418 (800 μg/ml active, Sigma) selection. The stable clones were thereafter maintained at 500 ug/ml (G418). The selected clone was used between passages 9-25 for cAMP assays.
The trypsin was inactivated using Ham's F12 medium containing 10% NBCS and the cells were suspended in 2 ml of complete medium. […] The medium was aspirated off from the 12 well plate and the cells were washed once using Ham's F12 (plain). […] The cells were incubated with the test compounds for 30 min in humidified atmosphere and 37° C. After the incubation, the medium was removed and cells were washed once with plain Ham's F12. Subsequently, the cells were lysed by adding 500 ul of ice cold 0.1 N HCl to each well and shaking for 30 minutes at 200 rpm. The cells were then scrapped, the lysate was collected in micro centrifuge tubes and centrifuged at 12000 rpm for 10 min to remove the debris. 300 ul of supernatant from each micro-centrifuge tube was then removed into a glass tube and dried under N2 for 30 min, for cAMP estimation. The total cAMP was estimated from the sample according to the manufacturer's protocol using Cyclic AMP immunoassay kit (R&D systems, Minneapolis. MN). The remaining supernatant is used to determine the protein concentration using micro BCA (Sigma). Data is calculated as percent of control (Vehicle: water) and expressed as Mean±SD.

DPP IV = DPP IV (Homo sapiens, UniProt P27487); assay: Stability against DPP IV enzyme; type: in vitro ADME; settings: 37° C.; for % degradation of peptidomimetics in 24 h when incubated with DPP-IV enzyme: 2 μM peptidomimetic; for half-life at 2 μM: DPP IV enzyme, pH 7.8, 2 μM peptidomimetic, read-out: half-life (t1/2) when incubated with DPP-IV enzyme
Method: as §1

human glucagon receptor = target: T2, human glucagon receptor (Homo sapiens, UniProt P47871); assay: In vitro human glucagon antagonist activity (inhibition of cAMP production) in CHO/human glucagon R cells; type: cell-based; settings: with saturated concentration of glucagon peptide
T2 construct: The full-length cDNA was cloned in pcDNA3.1 (Invitrogen); expressed in transfected cells
T2 sequence (P47871 26-477): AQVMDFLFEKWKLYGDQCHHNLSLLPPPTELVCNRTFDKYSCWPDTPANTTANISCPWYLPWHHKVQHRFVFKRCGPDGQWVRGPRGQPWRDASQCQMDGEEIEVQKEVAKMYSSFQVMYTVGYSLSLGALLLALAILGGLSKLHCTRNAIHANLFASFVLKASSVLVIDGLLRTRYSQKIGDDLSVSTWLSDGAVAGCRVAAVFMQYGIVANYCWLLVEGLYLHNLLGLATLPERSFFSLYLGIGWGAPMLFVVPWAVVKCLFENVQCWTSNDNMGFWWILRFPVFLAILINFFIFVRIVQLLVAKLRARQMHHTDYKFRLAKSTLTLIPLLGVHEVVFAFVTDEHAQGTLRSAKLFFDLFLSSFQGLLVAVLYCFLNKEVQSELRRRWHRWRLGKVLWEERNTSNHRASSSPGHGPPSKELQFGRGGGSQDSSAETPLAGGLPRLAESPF

T1 sequence (P43220 24-463): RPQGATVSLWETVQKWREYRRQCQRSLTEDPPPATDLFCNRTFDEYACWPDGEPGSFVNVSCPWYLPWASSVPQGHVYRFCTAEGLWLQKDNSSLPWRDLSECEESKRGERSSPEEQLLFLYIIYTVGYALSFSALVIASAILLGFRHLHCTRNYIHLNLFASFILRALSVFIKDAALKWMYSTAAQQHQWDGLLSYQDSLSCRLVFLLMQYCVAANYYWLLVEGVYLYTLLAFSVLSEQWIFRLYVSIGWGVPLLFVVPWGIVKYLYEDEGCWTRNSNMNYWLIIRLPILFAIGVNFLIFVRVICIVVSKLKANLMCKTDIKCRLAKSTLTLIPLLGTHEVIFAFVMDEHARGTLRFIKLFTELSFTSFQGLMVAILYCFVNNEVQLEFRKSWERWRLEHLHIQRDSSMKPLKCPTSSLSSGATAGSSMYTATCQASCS
DPP IV, sequence (P27487 whole entry, species assumed): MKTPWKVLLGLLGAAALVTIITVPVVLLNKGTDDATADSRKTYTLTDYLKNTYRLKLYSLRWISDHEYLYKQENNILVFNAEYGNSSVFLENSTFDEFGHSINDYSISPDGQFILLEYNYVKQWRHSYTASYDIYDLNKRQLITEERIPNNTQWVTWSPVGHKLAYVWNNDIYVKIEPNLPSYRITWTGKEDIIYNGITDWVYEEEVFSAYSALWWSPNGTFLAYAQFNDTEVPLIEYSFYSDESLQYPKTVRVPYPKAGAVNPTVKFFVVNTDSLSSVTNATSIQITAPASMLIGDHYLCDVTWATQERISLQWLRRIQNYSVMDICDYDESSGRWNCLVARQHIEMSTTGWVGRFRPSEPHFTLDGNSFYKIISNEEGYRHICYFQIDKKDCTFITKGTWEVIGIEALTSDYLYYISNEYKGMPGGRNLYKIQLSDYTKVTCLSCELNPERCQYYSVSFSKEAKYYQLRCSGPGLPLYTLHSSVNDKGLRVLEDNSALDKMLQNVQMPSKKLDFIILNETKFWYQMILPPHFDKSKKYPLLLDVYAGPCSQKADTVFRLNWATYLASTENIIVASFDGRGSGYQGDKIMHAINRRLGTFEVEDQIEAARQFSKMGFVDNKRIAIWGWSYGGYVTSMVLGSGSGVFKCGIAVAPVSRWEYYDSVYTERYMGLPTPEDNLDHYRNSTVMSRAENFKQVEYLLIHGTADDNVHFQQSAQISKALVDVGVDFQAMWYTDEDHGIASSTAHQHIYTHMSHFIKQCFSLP

SMILES | % degradation of peptidomimetics in 24 h when incubated with simulated gastric fluid [1] [%] | half-life at 2 μM [1] [h] | % degradation of peptidomimetics in 24 h when incubated with simulated intestinal fluid [2] [%] | half-life at 2 μM [2] [h] | % degradation of peptidomimetics in 24 h when incubated with human plasma [3] [%] | half-life at 2 μM [3] [h] | % degradation of peptidomimetics in 24 h when incubated with liver microsomes [4] [%] | half-life at 2 μM [4] [h] | Human GLP-1 R activity (cAMP release), % activity with respect to control (Human GLP-1 receptor; 1 nM test compound) [%] | Human GLP-1 R activity (cAMP release), % activity with respect to control (Human GLP-1 receptor; 10 nM test compound) [%] | Human GLP-1 R activity (cAMP release), % activity with respect to control (Human GLP-1 receptor; 100 nM test compound) [%] | Human GLP-1 R activity (cAMP release), % activity with respect to control (Human GLP-1 receptor; 1 μM test compound) [%] | Human GLP-1 R activity (cAMP release), % activity with respect to control (Human GLP-1 receptor; 10 μM test compound) [%] | % degradation of peptidomimetics in 24 h when incubated with DPP-IV enzyme (DPP IV) [%] | half-life at 2 μM (DPP IV) [h] | Human Glucagon receptor antagonistic activity shown as inhibition of cAMP production of Glucagon peptide (human glucagon receptor; 1 nM test compound) [pmol/ml/μg prt] | Human Glucagon receptor antagonistic activity shown as inhibition of cAMP production of Glucagon peptide (human glucagon receptor; 10 nM test compound) [pmol/ml/μg prt] | Human Glucagon receptor antagonistic activity shown as inhibition of cAMP production of Glucagon peptide (human glucagon receptor; 100 nM test compound) [pmol/ml/μg prt] | Human Glucagon receptor antagonistic activity shown as inhibition of cAMP production of Glucagon peptide (human glucagon receptor; 1 μM test compound) [pmol/ml/μg prt] | Human Glucagon receptor antagonistic activity shown as inhibition of cAMP production of Glucagon peptide (human glucagon receptor; 10 μM test compound) [pmol/ml/μg prt] | other results
CCc1cc(OC)ccc1-c1ccc(CC(CNC(CCCc2ccccc2)C(N)=O)NC(=O)[C@H](CC(=O)O)NC(=O)[C@H](CO)NC(=O)[C@@H](NC(=O)C(C)(Cc2ccccc2F)NC(=O)[C@@H](NC(=O)CNC(=O)[C@H](CCC(N)=O)NC(=O)C(C)(C)NC(=O)[C@H](Cc2c[nH]cn2)NC(C)=O)[C@H](C)O)[C@H](C)O)cc1 (single isomer, unassigned) [compound 185] | 55 | 4 | 00 | > 24 | 00 | > 24 | 84 | 2 | 46 ± 0.022 | 85 ± 0.46 | 90 ± 0.41 | 99 ± 0.66 | 99 ± 0.03 | 00 | > 24 |  |  |  |  |  | 
CCc1cc(OC)ccc1-c1ccc(CC(CNC(CCCc2ccccc2)C(N)=O)NC[C@H](CC(=O)O)NC(=O)[C@H](CO)NC(=O)[C@@H](NC(=O)C(C)(Cc2ccccc2F)NC(=O)[C@@H](NC(=O)CNC(=O)[C@H](CCC(N)=O)NC(=O)C(C)(C)NC(=O)[C@H](Cc2c[nH]cn2)NC(=O)OC)[C@H](C)O)[C@H](C)O)cc1 (single isomer, unassigned) [compound 198] | 49 | 4 | 00 | > 24 | 00 | > 24 | 82 | 2 | 82 ± 0.22 | 87 ± 0.12 | 92 ± 0.14 | 99 ± 0.22 | 99 ± 0.26 | 00 | > 24 |  |  |  |  |  | 
CCc1cc(OC)ccc1-c1ccc(CC(NC(=S)[C@H](CC(=O)O)NC(=O)[C@H](CO)NC(=O)[C@@H](NC(=O)C(C)(Cc2ccccc2F)NC(=O)[C@@H](NC(=O)CNC(=O)C(CCC#N)NC(=O)C(C)(C)NC(=O)[C@@H](N)Cc2c[nH]cn2)[C@H](C)O)[C@H](C)O)C(=S)NC(CCCc2ccccc2F)C(N)=O)cc1 (single isomer, unassigned) [compound 180] | 50 | 4 | 00 | > 24 | 00 | > 24 | 86 | 2 | 40 ± 0.11 | 81 ± 0.09 | 89 ± 0.06 | 96 ± 0.14 | 99 ± 0.19 | 00 | > 24 |  |  |  |  |  | 
CCc1cc(OC)ccc1-c1ccc(CC(NC(=O)[C@H](CC(=O)O)NC(=O)[C@H](CO)NC(=O)[C@@H](NC(=O)[C@H](Cc2ccccc2)NC(=O)[C@@H](NC(=O)CNC(=O)[C@H](CCC(N)=O)NC(=O)C(C)(C)NC(=O)[C@@H](N)Cc2c[nH]cn2)[C@@H](C)O)[C@@H](C)O)C(=O)NC(CCCc2ccc(C(F)(F)F)cc2F)C(N)=O)cc1 (some centres unmarked) [compound 65] (H-H[Aib]QGTFTSD[ξBip(2'-Et-4'-OMe)][X1]-NH2) | 14 |  | 43 |  | 78 | 8 | 80 | 1 |  |  |  |  |  | 76 | 9 | 10 ± 0.12 | 8 ± 0.02 | 6 ± 0.04 | 4 ± 0.05 | 1 ± 0.02 | half-life (t1/2) when incubated with simulated gastric fluid [1]: (8) h; half-life (t1/2) when incubated with simulated intestinal fluid [2]: (6) h
CCc1cc(OC)ccc1-c1ccc(CC(NC(=O)[C@H](CC(=O)O)NC(=O)[C@H](CO)NC(=O)[C@@H](NC(=O)C(C)(Cc2ccccc2F)NC(=O)[C@@H](NC(=O)CNC(=O)[C@H](CC(C(F)(F)F)C(F)(F)F)NC(=O)C(C)(C)NC(=O)[C@H](Cc2c[nH]cn2)NC(C)=O)[C@@H](C)O)[C@@H](C)O)C(=O)NC(CCCc2ccccc2F)C(N)=O)cc1 (some centres unmarked) [compound 212] (Ac-H[Aib][Leu(5,5,5,5',5',5'-F6)]GT[ξαMePhe(2-F)]TSD[ξBip(2'-Et-4'-OMe)][ξbishPhe(2-F)]-NH2) | 100 | 0.5 | 100 | 0.5 | 80 |  | 100 | 0.5 |  |  |  |  |  | 77 |  | 10 ± 0.12 | 8 ± 0.02 | 6 ± 0.04 | 4 ± 0.05 | 1 ± 0.02 | half-life (t1/2) when incubated with human plasma [3]: (9) h
